# Patent publication US7803559B1, “Protein aggregation regulators” (The Regents of the University of CA, priority 2003, dated 2010)
# Where two headings read alike, the source gives them in different places.
# Tests used:
# AR(122)-C17.2 cells = assay: Cell model of full length AR cytopathology (surviving neurons after 6 days of differentiation); format: cell-based, mouse; details: 50 μM
# Description: (§1) Immortalized cell lines were created expressing full-length AR that differentiated in vitro into cells that resemble CNS neurons. C17.2 cells were used, developed by Evan Snyder, M. D., Ph.D. which are a transformed mouse neural precursor cell line that retain the ability to engraft and differentiate into CNS neurons and glia when implanted into fetal mouse brain (Snyder et al. 1192 Cell 68:33-51). In their undifferentiated form these cells may be propagated and easily transfected in vitro. However, upon serum starvation, addition of growth factor (NGF 100 ng/ml), and mitomycin (100 ng/ml) they differentiate into cells that have many features of CNS neurons, including axons, dendrites, and expression of neuron-specific markers.
# (§2) C17.2 cell lines were created that stably expressed full-length HA-tagged forms of AR (25, 66, 103, or 122 glutamines). These AR(n)-C17.2 cell lines recapitulate several important aspects of SBMA, including proteolytic cleavage, and nuclear inclusion formation (data not shown). […] After six days of differentiation, AR(25)-C17.2 cells cultured with or without DHT readily formed neuron-like cells, expressing neural markers and extending long axonal processes. […]
# ARN127(65)CFP/YFP [1] = assay: FRET-based assay of polyglutamine (AR) aggregation, limited chemical screen and dose-response; format: cell-based, human
# Procedure: For experiments in the fluorescence plate reader, high-throughput screening, and detergent fractionation, HEK293 cells in 6-well plates were transfected with a total of 2 μg of DNA using 10 μL Plus™ and 12 μL Lipofectamine™ according to manufacturer's protocol. To control for autofluorescence and light scattering by mammalian cells, a control group was transfected with 2 μg pcDNA3. To control for bleedthrough and crossover excitation, CFP and YFP controls were transfected with 1 μg pECFP-C1 (Clontech) and 1 μg pcDNA3 (Invitrogen) or 1 μg pEYFP-C1 (Clontech) and 1 μg pcDNA3 respectively. After 5 hours, cells were counted and plated into optically clear 96-well plates (Costar™ 3603) at a density of 60,000 cells/well. […] For assays of rho-GTPase mutants, 1 μg of each was used in conjunction with 1 μg of the polyglutamine expression plasmids. Transfections were performed in triplicate, and each experiment was repeated 6 times. C17-2 neural precursor cells were plated in 12-well plates and transfected using 4 μg of DNA and 4 μl of Lipofectamine 2000™. […] In C17-2 cells polyglutamine protein was visualized by direct fluorescence; neuron-specific tubulin was visualized by immunostaining with mouse monoclonal antibody Neuro TUJ1 (Covance) at 1:1000. […]
# htt(72)CFP/YFP = molecular target: T1, htt(72)CFP/YFP (Homo sapiens, UniProt P42858, INS38QQQQQQQQQQQQQQQQQQQQQQQQQQQQQQQQQQQQQQQQQQQQQQQQQQQ); assay: FRET based assay of htt aggregation; format: cell-based
# T1 construct: htt exon 1 fragment derived from plasmid qp72; expressed in transfected cells; host or cells: HEK293
# Procedure: Aggregation of htt was monitored using the FPR FRET based HTS described herein for assaying aggregation of AR, using plasmids with htt exon 1-CFP and -YFP fusions containing 72 repeats (htt(72)CFP/YFP). HEK293 cells were transfected with htt(72)CFP/YFP as above, and cells were plated into a 96-well dish in the presence or absence of various concentrations of test compounds. After 24 hours, cells were fixed in 4% paraformaldehyde, and FRET signal was determined from the cell monolayers by reading on the FPR.
# [2] = system: Transgenic flies harboring htt exon 1 (Q93); assay: Drosophila model of htt exon 1 neurodegeneration (rhabdomeres per ommatidium); format: in vivo; details: 25 μM in food, seven days post-eclosion, p<0.0003 by ANOVA
# Procedure: Transgenic flies were used, harboring a human huntingtin exon 1 fragment with 93 glutamines (htt exon 1 (Q93)) that is expressed in all fly neurons under the control of the elav:Gal4 driver.
# Flies were treated by maintaining adults on food containing candidate compound (e.g., 25 μM Y-27632) or no drug supplement. The number of rhabdomeres in treated vs. untreated flies were analyzed seven days post-eclosion by the pseudopupil technique as described (Steffan et al., (2001). Nature 413, 739-743). Approximately 50-60 ommatidia were analyzed for rhabdomere content on each of 10-12 flies from each treatment group, and the average number of rhabdomeres per ommatidium in each individual was determined. Percent rhabdomere loss was calculated as 100×((7−average number remaining)/7) before and after treatment.
# The therapeutic effect of Y-27632 in a Drosophila model of polyglutamine neurodegenerative disease was tested. Following eclosion, adult flies expressing the transgene were grown for seven days in the presence or absence of 25 μM Y-27632 in their food and rhabdomeres were counted at seven days. […] Thus, in addition to reducing polyglutamine aggregation in mammalian cells, Y-27632 is neuroprotective in this Drosophila model of polyglutamine protein toxicity.
# [3] = Pharmacokinetics in serum and brain of mice (LC-MS); format: in vivo, mouse; details: for half-life: mouse
# Procedure: The pharmacokinetics of candidate compounds were assayed in serum and brain of mice. Wild-type C57B6 mice are injected with a single IP dose of a candidate compound, e.g., Y-27632 at 10 mg/kg. Pairs of animals are sacrificed at various time points and serum and brain samples were obtained for LC-MS analysis of drug levels. Plots of serum concentration vs. time and brain concentration vs. time are used to analyze, e.g., penetration of the blood/brain barrier, drug kinetics, and t1/2.
# Wild-type C57B6 mice were treated with a single 10 mg/kg dose of Y-27632 by IP injection. Pairs of animals were sacrificed at various time points and serum and brain samples were obtained for LC-MS analysis of Y-27632 levels. […] The initial rapid fall in serum concentration is likely due to tissue re-distribution. […] Values represent the average from two mice; error bars represent the range.
# full-length AR = assay: Western blot of full-length AR levels in stable C17.2 neural cell lines; format: cell-based; details: 50 μM, with or without 100 nM DHT, FIG. 6A
# Description: as §1, §2
# ARN127(65)CFP/YFP [4] = assay: Secondary screen using the AR FRET assay; format: cell-based, human; details: secondary screen, AR FRET assay, Table 3
# Procedure: Selected candidate compounds and/or libraries of compounds were screened as follows. Daughter plates were created in duplicate from the 384-well microtiter plates that contained the compounds at a concentration of 80 μg/ml. […] To screen a library, HEK293 cells stably expressing RFP were plated in 10 cm plates to obtain ˜80% confluency on the day of transfection. Each plate was transfected with 2 μg of ARN127(65)CFP/YFP each, and 0.7 μg p6RGRΔ using 50 μL Plus Reagent™ and 76 μL Lipofectamine™ according to manufacturer's protocol (Invitrogen). After 3 hours, complete medium was added and the plates were incubated further for 3 hours. […] The cells were then cultured for ˜48 hours to allow aggregate formation. After fixing the cells FRET signal was measured using a SAFIRE Fluorescence Plate Reader (Tecan, Inc.) according to methods described above. Several internal controls were used to standardize each experiment. Mock transfected cells were used to control for background autofluorescence and light scattering by mammalian cells. To control for CFP bleedthrough and crossover excitation of YFP, additional wells contained cells expressing ARN127(25)CFP or ARN127(25)YFP alone. RFP was measured to control for non-specific effects on steady-state protein levels. ARN127(25)CFP/YFP expression served as a reference point for background FRET levels without aggregation (a theoretical maximum effect on aggregation inhibition). FRET measurements for each experiment were thus scaled between 100% (cells with no drug treatment) and 0% (FRET levels from unexpanded protein).
# Selected candidate compounds from the primary screen of all three libraries were assayed again in a secondary screen using the AR FRET assay.
# Finally, the role of F-actin in preventing polyglutamine aggregation was investigated by treating cells with two agents that prevent actin depolymerization: phalloidin and jasplakinolide.
# [5] = C57B6 mice, single 10 mg/kg dose IP
# T1 sequence (P42858 with tags, fused parts or gaps, stated change not applied): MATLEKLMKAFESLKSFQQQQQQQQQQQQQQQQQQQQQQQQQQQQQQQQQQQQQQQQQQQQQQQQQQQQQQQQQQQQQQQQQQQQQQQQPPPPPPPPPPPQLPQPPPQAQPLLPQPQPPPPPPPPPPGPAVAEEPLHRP
"EC50 (ARN127(65)CFP/YFP [1]; dose-response analysis, FRET, FIG. 3B, read-out: EC50 for the effect on polyglutamine aggregation) [µM]",aggregation of htt exon 1-CFP and -YFP fusions containing 72 repeats (htt(72)CFP/YFP; FIG. 3A),"serum:brain ratio ([3]; C57B6, mouse, in vivo, ip, 10 mg/kg)","bioavailability [3, 5]","brain concentration, peak [3, 5]","serum concentration, spike [3, 5]","half-life ([3]; serum and brain, C57B6 mice, single 10 mg/kg dose IP, read-out: t1/2 of clearance from serum and brain (first-order kinetics)) [h]","half-life ([3]; serum, C57B6 mice, single 10 mg/kg dose IP, read-out: t1/2 of clearance from serum) [h]","Max % Inh. in Htt (htt(72)CFP/YFP; HEK293, htt(72)CFP/YFP, 24 hours) [%]",SMILES,increase in number of surviving AR(122)-C17.2 neurons (AR(122)-C17.2 cells) [%],effect on AR(25)-C17.2 cells (AR(122)-C17.2 cells; data not shown),"decrease of FRET (polyglutamine protein aggregation) (ARN127(65)CFP/YFP [1]; HEK293, ARN127(65)CFP/YFP and GRΔ, 100 nM dex, 48 hours) [%]",rhabdomere loss prevented [2] [%],AR steady-state levels (full-length AR),Max % Inhibition (ARN127(65)CFP/YFP [4]) [%]
~5,inhibited aggregation,approximately 6:1,excellent bioavailability,≈ 500 nM,approximately 3.5 μM,~1,~1,,C[C@@H](N)C1CCC(C(=O)Nc2ccncc2)CC1 (stereo partly drawn) [Compound Y-27632],100,without affecting AR(25)-C17.2 cells,40,29,reduced the AR steady-state levels,
,,,,,,,,28,"Oc1cc(O)cc(/C=C/c2ccc(O)c(O)c2)c1 [Piceatannol, 3,3′4,5′-Tetrahydroxy-Trans-stilbene]",,,,,,23
